Consider 1 compound from paper PMC9511777, “Novel lipid-coated mesoporous silica nanoparticles loaded with thymoquinone formulation to increase its bioavailability in the brain and organs of Wistar rats” (BMC Pharmacology & Toxicology, 2022).

Where two headings read alike, the source gives them in different places.

Series [1] can be described thus: Distribution of TQ in brain areas, liver and kidney (HPLC). In kind it is in vivo, Wistar rats. The settings on record: male, Wistar, rat, oral, 60 mg/kg TQ, read-out: TQ distribution, Mean ± SEM. Here is the method: Twenty-eight male Wistar rats with an average weight of 110±10 gm were allocated into four random groups (seven rats/group). Animals were kept in fixed housing circumstances (12 h light/dark cycles) and temperature (25 °C) for three days to acclimatize. The Institutional Animal Ethics Committee approved the protocol for the in vivo study (CU-I-F-28-21).
(§1) The four groups received oral dose day by day for 14 days as follows: The first group: the negative control group, received 1:9; DMSO: Saline. The second group: the free TQ group, received a 60 mg/kg free TQ (3). The third group: The MSNs group received a 60 mg/kg MSNs dose. The fourth group: the LB-MSNs group, received a dose of 60 mg/kg MSNs loaded with TQ and coated with lipids. On day 14, rats were decapitated, and rat brains, liver, and kidneys were dissected for histopathological examination and oxidative stress measurements. The duration time of our experiment and the TQ doses were determined following Sheikhbahaei et al. (2016). 's work.
(§2) On the 14th day of the experiment, all the experimental groups were sacrificed by decapitation. The brains of each animal were taken away after they were removed and put in an ice-cold Petri dish. The brain was sectioned into different regions (hippocampus, cortex, hypothalamus, thalamus, medulla, midbrain, cerebellum, and striatum). Each brain region was weighed and frozen until used in further measurements. Heidolph DIAX 900 was used to homogenize the brain sections weighed in 4 ml of ice-cold PBS (50 mM, pH 7.4). Then, for 15 minutes, the homogenates were separated using a high-speed cooling centrifuge. The centrifuge was set to 8000 RPM and 4°C (VS-18000 M small size, high speed, refrigerated centrifuge, Korea). The pure supernatant was collected and stored at -20°C for further analysis.
TQ was chromatographically identified at room temperature 25 °C. The mobile phase was 50: 30: **20 v/v/v methanol, acetonitrile, and potassium dihydrogen phosphate buffer (20 mM, pH 4.5), isocratically injected at a flow rate of 1 ml/min using the HPLC apparatus's C18 column (25 cm4.6 mm) (YL 9100 HPLC, USA).

The subject of series [2] is Lipid peroxidation (MDA) levels. Nature of the series: Lipid peroxidation (MDA) levels in tissues. In kind it is in vivo, Wistar rats. The settings on record: oral 60 mg/kg, 14 days. The method, then:
as §1, §2
MDA was determined as a marker of lipid peroxidation using a method developed by Begona Ruiz-Larrea et al., which entailed detecting the thiobarbituric acid-reactive molecules. […] A spectrophotometer was used to measure the absorbance of the generated compound at 532 nm (Jenway UV-6420; Barloworld Scientific, Essex, UK).
(§3) We used The Statistical Package for Social Sciences (SPSS) software (version 19) to analyze the data. The mean and standard error of the results were calculated. […] The percentage difference, which reflects the percent change in value compared to the control, was also assessed. %Difference%D=treatedvalue-controlvalue/controlvalue×100%

Series [3] has as its system Reduced glutathione (GSH) levels. The series is described as follows: Reduced glutathione (GSH) levels in tissues (Ellman's method). The following applies: oral 60 mg/kg, 14 days. In kind it is in vivo, Wistar rats. The method, then:
as §1
(§4) On the 14th day of the experiment, all the experimental groups were sacrificed by decapitation. […]
According to Ellman's method, the determination of Reduced Glutathione concentration (GSH) required using Biodiagnostic kit No. GR 25 11, Egypt. Ellman's method measured reduced glutathione levels, as the sulfhydryl group of […] lowers Ellman's reagent and produces 2-Nitro-smercaptobenzoic acid. The yellow-colored nitro-mercaptobenzoic acid was detected at 412 nm using a spectrophotometer (Jenway UV-6420; Barloworld Scientific, Essex, UK).
We used The Statistical Package for Social Sciences (SPSS) software (version 19) to analyze the data. The mean and standard error of the results were calculated. […]
(In general: In Ellman's method for cholinesterases, released thiocholine reacts with DTNB.)

Another series relates to Catalase activity. The series is described as follows: Catalase activity in tissues (Aebi's protocol). In kind it is in vivo, Wistar rats. The settings on record: oral 60 mg/kg, 14 days. Here is the method:
as §1, §4
The catalase activity was determined according to Aebi’s protocol (spectrophotometry) using Biodiagnostic Kit No. CA 25 1, Egypt. […] The chromophore's absorbance at 510 nm is measured using a spectrophotometer (Jenway UV-6420; Barloworld Scientific, Essex, UK).
as §3

A further series concerns NO and MDA metabolites. Details: method as in PMID 22309035. The settings on record: rat brain; 2, 5, or 10 mg/kg doses; cited from earlier work.
The test system of another series is Nitric oxide (NO) levels. Nature of the series: Nitric oxide (NO) levels in tissues (Griess reaction). The settings on record: all the tested organs; oral 60 mg/kg, 14 days. In kind it is in vivo, Wistar rats. The method, then:
as §1, §4
The nitric oxide assay was performed according to the Griess reaction method using biodiagnostic kit No. 25 33, Egypt. […] Absorption was measured using a spectrophotometer at […] (Jenway UV-6420; Barloworld Scientific, Essex, UK). NO levels were quantified as nitrite using the Griess reagent, according to Moshage et al..
as §3
(In general: Nitrite, measured by Griess reagent, commonly stands in for NO production.)

For another series, the system named is Wistar rats. Nature of the series: Histopathological examination of the kidney, liver, and different brain areas (H & E). The settings on record: H & E x400, oral 60 mg/kg, 14 days. Format: in vivo. Here is the method:
as §1
Each group's brain, liver, and kidney were fixed in a formalin buffered solution (10%) for twenty-four hours. Fixed specimens were rinsed with tap water before dehydrating with methyl, ethyl, and absolute dilutions. Specimens were cleaned in xylene and embedded in paraffin wax for 24 hours in a 56°C hot air oven. Microtome blocks of Paraffin bees wax tissue were sectioned at 8 microns on a slide, collected on glass slides, and removed paraffin stained with hematoxylin and eosin (H & E) stains. A light microscope was used to examine the slides (Zeiss, Germany).

On to `CC1=CC(=O)C(C(C)C)=CC1=O` [TQ, 2-isopropyl-5-methyl-1,4-benzoquinone], for which the concentration at 14 days in series [1] (Cerebellum) stood at 48 ± 18 ng/g; in series [1] (Cortex), 25 ± 4 ng/g; in series [1] (Hippocampus), 2 ± 0.3 ng/g; in series [1] (Hypothalamus) it was 10 ± 0.3 ng/g; in series [1] (Kidney), 112 ± 19 ng/g; in series [1] (Liver), 201 ± 24 ng/g. Further, the concentration at 14 days was determined as 6 ± 1 ng/g in series [1] (Medulla), 7 ± 1 ng/g in series [1] (Midbrain), 13 ± 1 ng/g in series [1] (Striatum) and 4 ± 1 ng/g in series [1] (Thalamus). For the same compound, the “MDA concentration change compared with control” value in series [2] (all tested areas except the medulla) is given as “nonsignificant changes”. In addition, in series [2] (liver), the “MDA level, significant increase compared with control” value was found to be 67.01%. Moreover, in series [2] (medulla), the “MDA level, significant decrease compared with control” value was 60.95%. For the same compound, the “GSH level change compared with negative control group” value in series [3] (all investigated areas except the cerebellum) was “no significant changes”. The “GSH level, significant increase compared with control” value in series [3] (cerebellum) was 181.98%. Further, the “catalase activity change compared with negative control group” value in the series with Catalase activity (all investigated areas except cerebellum, brain, kidney, hippocampus) is given as “no significant differences”. Moreover, the “catalase activity, significant difference compared with negative control (direction not given)” value in the series with Catalase activity (cerebellum) turned out to be 55.4%. Also, the “NO and MDA metabolites in the hippocampus” value in the series on NO and MDA metabolites was “decreased”. Also, the “NO level change compared with negative control group” value in the series on Nitric oxide (NO) levels is “nonsignificant changes”. In addition, the renal histopathological alterations result in the series on Wistar rats is recorded as “mild histopathological alterations”.
